Test results from patent publication US12077503B2, “Substituted cyclic amides and their use as herbicides” (FMC CORPORATION, priority 2015, dated 2024).

Experiments:
Format in all cases: in vivo
[1] = test system: Panicum, fall (fall Panicum, Panicum dichotomiflorum); test: Test E preemergence; conditions: scale 0 to 100
Source text: (§1) Seeds of plant species selected from corn (Zea mays), soybean (Glycine max), velvetleaf (Abutilon theophrasti), lambsquarters (Chenopodium album), poinsettia, wild (wild poinsettia, Euphorbia heterophylla), pigweed, palmer (palmer pigweed, Amaranthus palmeri), waterhemp (common waterhemp, Amaranthus rudis), surinam grass (Brachiaria decumbens), crabgrass, large (large crabgrass, Digitaria sangumnalis), crabgrass, Brazil (Brazilian crabgrass, Digitaria horizontalis), Panicum, fall (fall Panicum, Panicum dichotomiflorum), foxtail, giant (giant foxtail, Setaria faberii), foxtail, green (green foxtail, Setaria viridis), goosegrass (Eleusine indica), johnsongrass (Sorghum halepense), ragweed (common ragweed, Ambrosia elatior), barnyardgrass (Echinochloa crus-galli), sandbur (southern sandbur, Cenchrus echinatus), arrowleaf Sida (Sida rhombifolia), ryegrass, Italian (Italian ryegrass, Lolium multiflorum), dayflower, VA (Virginia dayflower, Commelina virginica), field bindweed (Convolvulus arvensis), morningglory (Ipomoea coccinea), nightshade (eastern black nightshade, Solanum ptycanthum), Kochia (Kochia scoparia), nutsedge, yellow (yellow nutsedge, Cyperus esculentus), horseweed (Conyza canadensis), and beggarticks (hairy beggarticks, Bidens pilosa), were planted into a silt loam soil and treated preemergence with test chemicals formulated in a non-phytotoxic solvent mixture which included a surfactant.
(§2) At the same time, plants selected from these crop and weed species were planted in pots containing Sunshine Redi-Earth planting medium comprising spaghnum peat moss, vermiculite, starter nutrients and dolomitic limestone and treated with postemergence applications of a test chemical formulated in the same manner. Plants ranged in height from 2 to 18 cm (1- to 4-leaf stage) for postemergence treatments. Treated plants and controls were maintained in a greenhouse for 14 to 21 d, after which time all species were compared to controls and visually evaluated. Plant response ratings, summarized in Table E, are based on a scale of 0 to 100 where 0 is no effect and 100 is complete control. A dash (-) response means no test result.

[2] = test system: ragweed (common ragweed, Ambrosia elatior); test: Test E preemergence; conditions: scale 0 to 100
Source text: as §1, §2

[3] = test system: field bindweed (Convolvulus arvensis); test: Test E preemergence; conditions: scale 0 to 100
Source text: as §1, §2

[4] = test system: foxtail, giant (giant foxtail, Setaria faberii); test: Test E preemergence; conditions: scale 0 to 100
Source text: as §1, §2

[5] = test system: nightshade (eastern black nightshade, Solanum ptycanthum); test: Test E preemergence; conditions: scale 0 to 100
Source text: as §1, §2

[6] = test system: nutsedge, yellow (yellow nutsedge, Cyperus esculentus); test: Test E preemergence; conditions: scale 0 to 100
Source text: as §1, §2

[7] = test system: barnyardgrass (Echinochloa crus-galli); test: Test C postemergence; conditions: scale 0 to 100, 0 no effect, 100 complete control
In short: (§3)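 Preemergence application to seeds in loam/sand soil, or foliar (postemergence) application to plants 2–18 cm tall in peat moss/vermiculite medium; surfactant-containing non-phytotoxic solvent vehicle; greenhouse. Visual injury vs controls at 13–15 d; 0 = no effect, 100 = complete control.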

[8] = test system: wheat (winter wheat, Triticum aestivum); test: Test C postemergence; conditions: scale 0 to 100, 0 no effect, 100 complete control
In short: as §3

[9] = test system: chickweed (common chickweed, Stellaria media); test: Test C postemergence; conditions: scale 0 to 100, 0 no effect, 100 complete control
In short: as §3

[10] = test system: velvetleaf (Abutilon theophrasti); test: Test C postemergence; conditions: scale 0 to 100, 0 no effect, 100 complete control
In short: as §3

[11] = test system: morningglory (Ipomoea coccinea); test: Test C postemergence; conditions: scale 0 to 100, 0 no effect, 100 complete control
In short: as §3

[12] = test system: ragweed (common ragweed, Ambrosia elatior); test: Test C postemergence; conditions: scale 0 to 100, 0 no effect, 100 complete control
In short: as §3

[13] = test system: ryegrass, Italian (Italian ryegrass, Lolium multiflorum); test: Test C postemergence; conditions: scale 0 to 100, 0 no effect, 100 complete control
In short: as §3

[14] = test system: johnsongrass (Sorghum halepense); test: Test C postemergence; conditions: scale 0 to 100, 0 no effect, 100 complete control
In short: as §3

[15] = test system: pigweed (Amaranthus retroflexus); test: Test C postemergence; conditions: scale 0 to 100, 0 no effect, 100 complete control
In short: as §3

SMILES: CN1CC(c2cccc(OC(F)(F)C(F)F)c2)C(C(=O)Nc2cccc(F)c2F)C1=O (stereo not drawn) [Compound 392]
- Plant response rating: Panicum, Fall ([1]; 31 g ai/ha): 95
- Plant response rating: Panicum, Fall ([1]; 62 g ai/ha): 98
- Plant response rating: Panicum, Fall ([1]; 125 g ai/ha): 98
- Plant response rating: Panicum, Fall ([1]; 250 g ai/ha): 98
- Plant response rating: Ragweed ([2]; 31 g ai/ha): 0
- Plant response rating: Ragweed ([2]; 62 g ai/ha): 0
- Plant response rating: Ragweed ([2]; 125 g ai/ha): 0
- Plant response rating: Ragweed ([2]; 250 g ai/ha): 65
- Plant response rating: Field Bindweed ([3]; 31 g ai/ha): 0
- Plant response rating: Field Bindweed ([3]; 62 g ai/ha): 0
- Plant response rating: Field Bindweed ([3]; 125 g ai/ha): 35
- Plant response rating: Field Bindweed ([3]; 250 g ai/ha): 70
- Plant response rating: Foxtail, Giant ([4]; 31 g ai/ha): 90
- Plant response rating: Foxtail, Giant ([4]; 62 g ai/ha): 95
- Plant response rating: Foxtail, Giant ([4]; 125 g ai/ha): 98
- Plant response rating: Foxtail, Giant ([4]; 250 g ai/ha): 98
- Plant response rating: Nightshade ([5]; 31 g ai/ha): 20
- Plant response rating: Nightshade ([5]; 62 g ai/ha): 80
- Plant response rating: Nightshade ([5]; 125 g ai/ha): 90
- Plant response rating: Nightshade ([5]; 250 g ai/ha): 90
- Plant response rating: Nutsedge, Yellow ([6]; 31 g ai/ha): 0
- Plant response rating: Nutsedge, Yellow ([6]; 62 g ai/ha): 0
- Plant response rating: Nutsedge, Yellow ([6]; 125 g ai/ha): 0
- Plant response rating: Nutsedge, Yellow ([6]; 250 g ai/ha): 0

SMILES: CN1CC(c2ccc(F)c(F)c2)C(C(=O)Nc2ccccc2S(C)(=O)=O)C1=O (stereo not drawn) [Compound 640]
- Plant response rating, Barnyardgrass ([7]; 31 g ai/ha): 0
- Plant response rating, Barnyardgrass ([7]; 62 g ai/ha): 0
- Plant response rating, Barnyardgrass ([7]; 125 g ai/ha): 10
- Plant response rating, Barnyardgrass ([7]; 250 g ai/ha): 10
- Plant response rating, Wheat ([8]; 31 g ai/ha): 0
- Plant response rating, Wheat ([8]; 62 g ai/ha): 0
- Plant response rating, Wheat ([8]; 125 g ai/ha): 0
- Plant response rating, Wheat ([8]; 250 g ai/ha): 0
- Plant response rating, Chickweed ([9]; 31 g ai/ha): 25
- Plant response rating, Chickweed ([9]; 62 g ai/ha): 0
- Plant response rating, Chickweed ([9]; 125 g ai/ha): 60
- Plant response rating, Chickweed ([9]; 250 g ai/ha): 35
- Plant response rating, Velvetleaf ([10]; 31 g ai/ha): 5
- Plant response rating, Velvetleaf ([10]; 62 g ai/ha): 70
- Plant response rating, Velvetleaf ([10]; 125 g ai/ha): 25
- Plant response rating, Velvetleaf ([10]; 250 g ai/ha): 30
- Plant response rating, Morningglory ([11]; 31 g ai/ha): 35
- Plant response rating, Morningglory ([11]; 62 g ai/ha): 40
- Plant response rating, Morningglory ([11]; 125 g ai/ha): 55
- Plant response rating, Morningglory ([11]; 250 g ai/ha): 40
- Plant response rating, Ragweed ([12]; 31 g ai/ha): 0
- Plant response rating, Ragweed ([12]; 62 g ai/ha): 25
- Plant response rating, Ragweed ([12]; 125 g ai/ha): 30
- Plant response rating, Ragweed ([12]; 250 g ai/ha): 55
- Plant response rating, Ryegrass, Italian ([13]; 31 g ai/ha): 0
- Plant response rating, Ryegrass, Italian ([13]; 62 g ai/ha): 0
- Plant response rating, Ryegrass, Italian ([13]; 125 g ai/ha): 0
- Plant response rating, Ryegrass, Italian ([13]; 250 g ai/ha): 5
- Plant response rating, Johnsongrass ([14]; 31 g ai/ha): 0
- Plant response rating, Johnsongrass ([14]; 62 g ai/ha): 0
- Plant response rating, Johnsongrass ([14]; 125 g ai/ha): 0
- Plant response rating, Johnsongrass ([14]; 250 g ai/ha): 0
- Plant response rating, Pigweed ([15]; 31 g ai/ha): 10
- Plant response rating, Pigweed ([15]; 62 g ai/ha): 35
- Plant response rating, Pigweed ([15]; 125 g ai/ha): 35
- Plant response rating, Pigweed ([15]; 250 g ai/ha): 55
